Assay results reported in the supplement of paper PMC8671470.

Columns and labels:
Conditions in all cases: 72 h
BV-173 [1] = tested on: BV-173
How it was run: (§1)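 Dose–response data were fitted with a four-parameter log-logistic model. They came from fifteen myeloid leukaemia lines treated in duplicate with five tenfold doses from 1 to 10,000 nM for 72 h at 37 °C with 5% CO2, with ATP viability normalised to vehicle and to a positive control at 10 µM. The IC50 was derived from these fits.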

HEL [2] = tested on: HEL
How it was run: as §1

HL-60 [3] = tested on: HL-60
How it was run: as §1

K-562 [4] = tested on: K-562
How it was run: as §1

KCL-22 [5] = tested on: KCL-22
How it was run: as §1

KG-1 [6] = tested on: KG-1
How it was run: as §1

KU-812 [7] = tested on: KU-812
How it was run: as §1

LAMA-84 [8] = tested on: LAMA-84
How it was run: as §1

ML-2 [9] = tested on: ML-2
How it was run: as §1

MOLM-13 [10] = tested on: MOLM-13
How it was run: as §1

MV4-11 [11] = tested on: MV4-11
How it was run: as §1

Mono-Mac-6 [12] = tested on: Mono-Mac-6
How it was run: as §1

NOMO-1 [13] = tested on: NOMO-1
How it was run: as §1

SHI-1 [14] = tested on: SHI-1
How it was run: as §1

THP-1 [15] = tested on: THP-1
How it was run: as §1

BV-173 [16] = assay: cell viability (% survival relative to DMSO control, bortezomib = 0%); higher = less cytotoxic
How it was run: (§2)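 Seeding density for each of the 10 AML and 5 CML cell lines was titrated to the linear growth range. Cells went into 384-well plates pre-printed in duplicate with compounds at 1, 10, 100, 1000 or 10000 nM and were held for 72 h at 37 °C with 5% CO2. CellTiter-Glo luminescence then provided the readout. Percent survival is expressed relative to vehicle at 100% and a 10 µM positive control at 0%, averaged over duplicates.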

HEL [17] = assay: as above
How it was run: as §2

HL-60 [18] = assay: as above
How it was run: as §2

K-562 [19] = assay: as above
How it was run: as §2

KCL-22 [20] = assay: as above
How it was run: as §2

KG-1 [21] = assay: as above
How it was run: as §2

KU-812 [22] = assay: as above
How it was run: as §2

LAMA-84 [23] = assay: as above
How it was run: as §2

ML-2 [24] = assay: as above
How it was run: as §2

MOLM-13 [25] = assay: as above
How it was run: as §2

MV4-11 [26] = assay: as above
How it was run: as §2

Mono-Mac-6 [27] = assay: as above
How it was run: as §2

NOMO-1 [28] = assay: as above
How it was run: as §2

SHI-1 [29] = assay: as above
How it was run: as §2

THP-1 [30] = assay: as above
How it was run: as §2

c1cc(-c2cnn3cc(-c4ccc(OCCN5CCCCC5)cc4)cnc23)ccn1 [Dorsomorphin]
Conditions | IC50 (cell viability) [µM]
BV-173 [1] | 7.28
HEL [2] | > 10
HL-60 [3] | > 10
K-562 [4] | > 10
KCL-22 [5] | 6.79
KG-1 [6] | > 10
KU-812 [7] | 2.6
LAMA-84 [8] | 6.49
ML-2 [9] | 5.24
MOLM-13 [10] | > 10
MV4-11 [11] | > 10
Mono-Mac-6 [12] | 0.811
NOMO-1 [13] | 6.43
SHI-1 [14] | > 10
THP-1 [15] | > 10

cell viability [%]
Conditions | 1 nM | 10 nM | 100 nM | 1000 nM | 10000 nM
BV-173 [16] | 89.8 | 108 | 99.9 | 90.1 | 53.2
HEL [17] | 87.1 | 105 | 99.4 | 103 | 72.6
HL-60 [18] | 113 | 110 | 94.9 | 97.1 | 93.9
K-562 [19] | 94.2 | 97.4 | 93.3 | 92.1 | 93.5
KCL-22 [20] | 108 | 106 | 102 | 94.6 | 37.7
KG-1 [21] | 94.4 | 117 | 98.8 | 99.8 | 50.8
KU-812 [22] | 91.9 | 97.1 | 97.2 | 85.9 | 1.77
LAMA-84 [23] | 96.4 | 98.8 | 96.5 | 96.1 | 28.8
ML-2 [24] | 95.2 | 113 | 96.7 | 88.3 | 44.1
MOLM-13 [25] | 77.6 | 78.5 | 97.5 | 108 | 97.8
MV4-11 [26] | 89.9 | 117 | 97.4 | 99.8 | 89.1
Mono-Mac-6 [27] | 95.3 | 101 | 103 | 42.8 | 6.23
NOMO-1 [28] | 93.2 | 105 | 98.8 | 92.7 | 48.5
SHI-1 [29] | 104 | 102 | 95.6 | 103 | 113
THP-1 [30] | 94.5 | 101 | 101 | 96.2 | 55.6

COC(=O)c1cc2c(C(F)(F)F)cc(-c3ccccc3)cc2n1O [NHI-2]
Conditions | IC50 (cell viability) [µM]
BV-173 [1] | > 10
HEL [2] | > 10
HL-60 [3] | > 10
K-562 [4] | > 10
KCL-22 [5] | > 10
KG-1 [6] | > 10
KU-812 [7] | > 10
LAMA-84 [8] | > 10
ML-2 [9] | > 10
MOLM-13 [10] | > 10
MV4-11 [11] | > 10
Mono-Mac-6 [12] | > 10
NOMO-1 [13] | > 10
SHI-1 [14] | > 10
THP-1 [15] | > 10

cell viability [%]
Conditions | 1 nM | 10 nM | 100 nM | 1000 nM | 10000 nM
BV-173 [16] | 100 | 100 | 101 | 73.7 | 94.2
HEL [17] | 83.5 | 91.9 | 90.4 | 89.4 | 92.5
HL-60 [18] | 98.5 | 90.3 | 95.2 | 97.2 | 96.8
K-562 [19] | 98.8 | 91.1 | 93.8 | 87.4 | 85.4
KCL-22 [20] | 91.9 | 88.8 | 104 | 110 | 92.7
KG-1 [21] | 97.6 | 90.8 | 100 | 85.9 | 97.7
KU-812 [22] | 97.6 | 96.9 | 97.7 | 96.8 | 84.3
LAMA-84 [23] | 91.9 | 95 | 93.9 | 87.5 | 76.4
ML-2 [24] | 94.8 | 95.1 | 109 | 102 | 107
MOLM-13 [25] | 87 | 80.6 | 91.3 | 95.6 | 105
MV4-11 [26] | 99.7 | 91.1 | 91.2 | 85.3 | 94.3
Mono-Mac-6 [27] | 93.6 | 102 | 114 | 89.5 | 103
NOMO-1 [28] | 101 | 102 | 92.2 | 97.4 | 102
SHI-1 [29] | 96.6 | 104 | 97.3 | 93.6 | 96.9
THP-1 [30] | 97.4 | 99.3 | 104 | 98.9 | 108

Cc1cccc(Nc2cc(Cl)nc(SCC(=O)O)n2)c1C [Pirinixic acid]
Conditions | IC50 (cell viability) [µM]
BV-173 [1] | > 10
HEL [2] | > 10
HL-60 [3] | > 10
K-562 [4] | > 10
KCL-22 [5] | > 10
KG-1 [6] | > 10
KU-812 [7] | > 10
LAMA-84 [8] | > 10
ML-2 [9] | > 10
MOLM-13 [10] | > 10
MV4-11 [11] | > 10
Mono-Mac-6 [12] | > 10
NOMO-1 [13] | > 10
SHI-1 [14] | > 10
THP-1 [15] | > 10

cell viability [%]
Conditions | 1 nM | 10 nM | 100 nM | 1000 nM | 10000 nM
BV-173 [16] | 106 | 90.6 | 104 | 92.1 | 93.5
HEL [17] | 84 | 100 | 109 | 104 | 101
HL-60 [18] | 97.2 | 101 | 116 | 93.8 | 98.2
K-562 [19] | 99.8 | 92.3 | 102 | 94.5 | 90.7
KCL-22 [20] | 86.5 | 92.5 | 100 | 106 | 101
KG-1 [21] | 99 | 93.1 | 101 | 98.8 | 107
KU-812 [22] | 97.2 | 97.6 | 102 | 96.4 | 97.3
LAMA-84 [23] | 100 | 97.7 | 99 | 94.5 | 95
ML-2 [24] | 103 | 103 | 105 | 105 | 102
MOLM-13 [25] | 106 | 102 | 87.1 | 111 | 84.6
MV4-11 [26] | 94.5 | 90.7 | 102 | 99.3 | 99.8
Mono-Mac-6 [27] | 105 | 106 | 98.4 | 99.2 | 91.4
NOMO-1 [28] | 106 | 102 | 102 | 90.5 | 96.8
SHI-1 [29] | 98.5 | 97 | 91.8 | 94.4 | 82.8
THP-1 [30] | 105 | 97.1 | 101 | 99.5 | 102
